Data taken from article PMC1079881, “Differential modulation of microglia superoxide anion and thromboxane B2 generation by the marine manzamines” (BMC Pharmacology, 2005).
Where two headings read alike, the source gives them in different places.

Columns and labels:
[1] = tested on: LPS-activated rat neonatal microglia; assay: PMA-stimulated TXB2 generation by LPS-activated rat neonatal microglia (immunoassay); type: cell-based; conditions: for IC50: PMA 1 μM, 70 min, LPS 0.3 ng/mL 17 h, manzamine added 15 min before
Protocol: (§1) All experiments were performed with adherence to the National Institutes of Health guidelines on the use of experimental animals and with protocols approved by Midwestern University's Research and Animal Care Committee. To isolate rat neonatal microglia, cerebral cortices of 1–2 day-old Sprague-Dawley rats purchased from Harlan (Indianapolis, IN) were surgically removed and placed in cold DMEM + 10% FBS + 120 U/ml P and 12 μg/ml S, the meninges carefully removed, and brain tissue minced and dissociated with trypsin-EDTA at 36°C for 3–5 min. The mixed astroglial cell suspension was plated in either 75- or 162-cm^2 vented cell culture flasks with DMEM medium supplemented with 10% FBS + 120 U/ml P + 12 μg/ml S and grown in a humidified 5% CO2 incubator at 36°C for 12–14 days. […] Microglia were characterized as described earlier.
(§2) To study the effects of manzamines A, B, C, D, E and F on the generation of TXB2 and O2^-, rat neonatal microglia (2 × 10^5 cells/24-well cell culture clusters) were treated to the following protocol. Seventeen hours prior to the experiments, microglia cells were treated with LPS (0.3 ng/ml) in a final volume of 1 ml of DMEM supplemented with 10% FBS + 120 U/ml P + 12 μg/ml. […] O2^-, TXB2 and lactate dehydrogenase (LDH) release were assayed as described below.
(§3) Following the incubation of LPS-activated microglia with HBSS, manzamines or vehicle as explained above, PMA- (1 μM) or OPZ- (0.5 mg/mL)triggered TXB2 generation in the culture supernatants was measured using immunoassays (Cayman Chemical, Ann Arbor, MI) as indicated by the manufacturer's protocol. Results were expressed as pg/mL produced after 70 min of PMA or OPZ stimulation.

[2] = tested on: LPS-activated rat neonatal microglia; assay: OPZ-stimulated TXB2 generation by LPS-activated rat neonatal microglia (immunoassay); type: cell-based; conditions: for IC50 / inhibition at 10 µM: Rattus norvegicus, Microglia; for IC50: OPZ 0.5 mg/mL, 70 min, LPS 0.3 ng/mL 17 h; for inhibition at 10 µM / OPZ-stimulated TXB2 released / OPZ-stimulated TXB2 generation, % of control: at 10 μM
Protocol: as §1, §2, §3

[3] = tested on: LPS-activated rat neonatal microglia; assay: PMA-stimulated O2^- generation by LPS-activated rat neonatal microglia (SOD-inhibitable FCC reduction); type: cell-based; conditions: for IC50: PMA 1 μM, 70 min, LPS 0.3 ng/mL 17 h
Protocol: as §1, §2
(§4) O2^- generation was determined by the SOD-inhibitable reduction of FCC [23]. […] All experimental treatments were run in triplicate and in a final volume of 1 ml. Changes in FCC absorbance were measured at 550 nm using a Beckman DU-650 spectrophotometer.

[4] = tested on: LPS-activated rat neonatal microglia; assay: OPZ-stimulated O2^- generation by LPS-activated rat neonatal microglia (SOD-inhibitable FCC reduction); type: cell-based; conditions: for IC50: OPZ 0.5 mg/mL, 70 min, LPS 0.3 ng/mL 17 h; for effect on OPZ-stimulated O2^- generation: even at 10 μM
Protocol: as §1, §2, §4

[5] = biological target: hypoxanthine-xanthine oxidase system (Homo sapiens, UniProt P47989); assay: Cell-free O2^- generation by hypoxanthine-xanthine oxidase system (scavenging test); type: biochemical; conditions: for O2^- generated by hypoxanthine-xanthine oxidase system: control (DMSO) 12 ± 1.1, test concentration not given
Chain of hypoxanthine-xanthine oxidase system (P47989 whole entry): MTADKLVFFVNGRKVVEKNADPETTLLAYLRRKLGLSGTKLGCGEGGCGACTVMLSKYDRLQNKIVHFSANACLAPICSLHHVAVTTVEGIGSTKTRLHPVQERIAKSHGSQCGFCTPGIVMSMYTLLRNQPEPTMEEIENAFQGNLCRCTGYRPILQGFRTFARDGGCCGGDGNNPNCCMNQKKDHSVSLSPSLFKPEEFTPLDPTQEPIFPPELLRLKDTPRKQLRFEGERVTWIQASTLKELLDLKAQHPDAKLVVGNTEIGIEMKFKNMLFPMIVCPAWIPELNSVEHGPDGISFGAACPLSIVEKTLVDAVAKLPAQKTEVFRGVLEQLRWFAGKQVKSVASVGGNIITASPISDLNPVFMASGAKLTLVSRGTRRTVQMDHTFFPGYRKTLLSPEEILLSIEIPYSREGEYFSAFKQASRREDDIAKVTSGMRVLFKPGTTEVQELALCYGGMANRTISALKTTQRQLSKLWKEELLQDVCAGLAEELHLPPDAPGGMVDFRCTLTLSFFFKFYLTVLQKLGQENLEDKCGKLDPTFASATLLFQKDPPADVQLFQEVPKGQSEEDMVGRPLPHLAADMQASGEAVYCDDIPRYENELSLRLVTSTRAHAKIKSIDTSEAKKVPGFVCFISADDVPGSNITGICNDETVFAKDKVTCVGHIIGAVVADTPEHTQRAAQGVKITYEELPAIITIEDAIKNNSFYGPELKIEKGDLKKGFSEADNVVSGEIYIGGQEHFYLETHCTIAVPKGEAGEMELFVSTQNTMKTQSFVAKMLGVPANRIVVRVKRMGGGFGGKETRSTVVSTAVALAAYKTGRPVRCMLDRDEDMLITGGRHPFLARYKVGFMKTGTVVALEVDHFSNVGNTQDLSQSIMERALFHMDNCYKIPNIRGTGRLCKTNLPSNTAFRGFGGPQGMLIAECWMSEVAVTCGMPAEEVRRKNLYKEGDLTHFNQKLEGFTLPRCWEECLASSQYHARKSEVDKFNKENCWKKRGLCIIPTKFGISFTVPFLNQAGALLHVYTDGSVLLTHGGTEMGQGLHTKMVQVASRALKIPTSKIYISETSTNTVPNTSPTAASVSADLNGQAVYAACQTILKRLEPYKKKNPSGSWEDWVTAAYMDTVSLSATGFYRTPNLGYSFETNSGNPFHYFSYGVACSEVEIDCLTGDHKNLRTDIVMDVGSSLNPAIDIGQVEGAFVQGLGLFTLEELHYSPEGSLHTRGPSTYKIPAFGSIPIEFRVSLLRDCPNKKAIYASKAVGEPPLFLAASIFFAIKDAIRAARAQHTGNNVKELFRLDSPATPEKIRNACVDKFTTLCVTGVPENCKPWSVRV
Protocol: A standard hypoxanthine-xanthine oxidase system was used as a cell-free source of O2^-. O2^- was generated by incubation of purified xanthine oxidase (0.02 Units/ml) with hypoxanthine (1.5 mM) at 37°C [21]. O2^- formation was assessed spectrophotometrically as the increase in absorbance at 550 nm associated with the SOD (30 U/mL)-inhibitable reduction FCC (50 μM) as described above for rat microglia O2^- generation and expressed in nmoles/30 minutes.

[6] = tested on: LPS-induced microglia PGE2 synthesis; conditions: cited from earlier work
[7] = tested on: LPS-activated rat neonatal microglia; assay: LDH release (cytotoxicity) from LPS-activated rat neonatal microglia; type: cell-based
Protocol: as §2, with “μg/ml. Thereafter the media was removed and replaced with 1 ml warm HBSS, one of the manzamines (0.1–10 μM final concentration) or vehicle (DMSO) was added, and the microglia incubated for fifteen minutes in a humidified 5% CO2 incubator at 35.9°C. After the fifteen minute preincubation period with either manzamines or vehicle, PMA (1 μM) or OPZ (0.5 mg/mL) was added and microglia incubated for 70 minutes in a humidified 5% CO2 incubator at 35.9°C in the presence of the manzamines or vehicle.” for “μg/ml.”
Lactate dehydrogenase (LDH) release from microglia was determined spectrophotometrically as described elsewhere. Microglia LDH release was expressed as a percentage of total LDH. Total LDH resulted from 0.1% Triton X-100-lysed microglia cells (intracellular LDH) plus LDH released to the extracellular medium.

activated rat microglia = conditions: read-out: IC50, PMA-stimulated O2^- generation in microglia; cited from earlier work
[8] = read-out: apparent IC50, LPS-induced microglia PGE2 synthesis

Molecule | IC50 ([1]; Rattus norvegicus, Microglia) [nM] | PMA-stimulated TXB2 release, % of control ([1]; at 10 μM) | PMA-stimulated TXB2 released ([1]; at 10 μM) | IC50 [2] [µM] | OPZ-stimulated TXB2 released [2] | IC50 ([3]; Rattus norvegicus, Microglia) [µM] | PMA-stimulated O2^- released ([3]; at 10 μM) | IC50 ([4]; Rattus norvegicus, Microglia) [µM] | O2^- generated by hypoxanthine-xanthine oxidase system [5] [nmoles/30 min] | also measured
O=C1CCCN2[C@@H](CC1)C[C@]13CN4CCCC/C=C\CC[C@](O)(C=C(c5nccc6c5[nH]c5c(O)cccc56)C1CC4)[C@H]23 (some centres unmarked) [MZF, manzamine F] | > 10000 | 104.1 ± 24.7 % of control | 3,202 ± 1,139 pg of TXB2 per 200,000 microglia per 70 min | > 10 | 3,317 ± 121 pg of TXB2 per 200,000 microglia per 70 min | > 10 | 12.8 ± 1.6 nmol of O2^- per 200,000 microglia per 70 min | > 10 | 20.1 ± 3.6 | inhibition at 10 µM [2]: 26.2%; PMA-stimulated O2^- release, % of control ([3]; at 10 μM): 113 ± 14.5 % of control; inhibition at 10 µM ([4]; Rattus norvegicus, Microglia, at 10 μM, non-statistically significant): 15.7%
C1=C\CCCCN(CCc2nccc3c2[nH]c2ccccc23)CCCC/1 [MZC, manzamine C] | 2980 | 19.6 % of control | 677 ± 293 pg of TXB2 per 200,000 microglia per 70 min | 3.34 | 1,345 ± 160 pg of TXB2 per 200,000 microglia per 70 min | 3.43 | 3.7 ± 2.2 nmol of O2^- per 200,000 microglia per 70 min | 9.3 | 20.7 ± 3.1 | OPZ-stimulated TXB2 generation, % of control [2]: 29.8 % of control; PMA-stimulated O2^- release, % of control ([3]; at 10 μM): 36.1 % of control; OPZ-stimulated O2^- generation, % of control ([4]; at 10 μM): 41.6 % of control; OPZ-stimulated O2^- released ([4]; at 10 μM): 3.9 ± 0.3 O2^- nmol per 200,000 microglia per 70 min
CC(=O)Oc1ccccc1C(=O)O [acetylsalicylic acid] | – | – | – | – | – | – | – | – | – | IC50 ([6]; COX-1 inhibitor, read-out: IC50, LPS-induced microglia PGE2 synthesis): 3120 to 10000 nM
CS(=O)(=O)Nc1ccc([N+](=O)[O-])cc1OC1CCCCC1 [NS-398] | – | – | – | – | – | – | – | – | – | IC50 [6, 8]: 1 to 5 nM
C1=C\CC[C@]23CN4CCCC/C=C\CC[C@@]5(O[C@H]5[C@@H](c5nccc6c5[nH]c5ccccc56)[C@@H]2CC4)[C@@H]3NCCCC/1 [MZB, manzamine B] | 1600 | 15.5 % of control | 546.3 ± 281 pg of TXB2 per 200,000 microglia per 70 min | 1.44 | 1,160 ± 207 pg of TXB2 per 200,000 microglia per 70 min | 3.16 | 2.14 ± 2.14 nmol of O2^- per 200,000 microglia per 70 min | 4.17 | 15.3 ± 2.4 | OPZ-stimulated TXB2 generation, % of control [2]: 25.6 % of control; PMA-stimulated O2^- release, % of control ([3]; at 10 μM): 20 % of control; OPZ-stimulated O2^- generation, % of control ([4]; at 10 μM): 16.5 % of control; OPZ-stimulated O2^- released ([4]; at 10 μM): 1.5 ± 0.7 O2^- nmol per 200,000 microglia per 70 min; concentrations cytotoxic to neonatal brain microglia [7]: above 1 μM
CO[C@]12C[C@@H](COC(=O)c3cncc(Br)c3)CN(C)[C@@H]1Cc1cn(C)c3cccc2c13 [nicergoline] | – | – | – | – | – | – | – | – | – | IC50 (activated rat microglia): 10 to 15 µM
CC(C(=O)O)c1ccc(-c2ccccc2)c(F)c1 (centres unmarked) [flurbiprofen] | – | – | – | – | – | – | – | – | – | IC50 ([6]; COX-1 inhibitor, read-out: apparent IC50, LPS-induced microglia PGE2 synthesis): 100 nM
O=C1CCCN2[C@@H](CC1)C[C@]13CN4CCCC/C=C\CC[C@](O)(C=C(c5nccc6c5[nH]c5ccccc56)[C@@H]1CC4)[C@H]23 [MZE, manzamine E] | > 10000 | – | 1,614 ± 628 pg of TXB2 per 200,000 microglia per 70 min | > 10 | 2,594 ± 646 pg of TXB2 per 200,000 microglia per 70 min | > 10 | 8.5 ± 2.1 nmol of O2^- per 200,000 microglia per 70 min | > 10 | 16.3 ± 2.2 | inhibition at 10 µM ([1]; Rattus norvegicus, Microglia, at 10 μM, read-out: maximum inhibition of PMA-stimulated TXB2 generation): 49.4%; inhibition at 10 µM [2]: 43.1%; inhibition at 10 µM ([3]; Rattus norvegicus, Microglia, at 10 μM): 26.3%; effect on OPZ-stimulated O2^- generation [4]: did not affect
O[C@]12C=C(C3NCCc4c3[nH]c3ccccc43)[C@@H]3CCN(CCCC/C=C\CC1)C[C@@]31C[C@@H]3/C=C\CCCCN3[C@H]12 (some centres unmarked) [MZD, manzamine D] | 230 | 18.8 % of control | 611 ± 342 pg of TXB2 per 200,000 microglia per 70 min | > 10 | 3,613 ± 469 pg of TXB2 per 200,000 microglia per 70 min | < 0.1 | – | > 10 | 22.2 ± 2 | OPZ-stimulated TXB2 generation, % of control [2]: 79.9 % of control; PMA-stimulated O2^- release, % of control ([3]; at 0.1 μM): 14 % of control; PMA-stimulated O2^- released ([3]; at 0.1 μM): 0.7 ± 0.7 nmol of O2^- per 200,000 microglia per 70 min; effect on OPZ-stimulated O2^- generation [4]: did not affect
C=CCN1C[C@H](C(=O)N(CCCN(C)C)C(=O)NCC)C[C@@H]2c3cccc4[nH]cc(c34)C[C@H]21 [cabergoline] | – | – | – | – | – | – | – | – | – | IC50 (activated rat microglia): > 100 µM
CCCn1cnc2c1c(=O)n(CCCCC(C)=O)c(=O)n2C [propentofylline] | – | – | – | – | – | – | – | – | – | IC50 (activated rat microglia): > 100 µM
superoxide dismutase: superoxide dismutase (from bovine liver), Sigma | – | – | – | – | – | – | – | – | – | effect on hypoxanthine-xanthine oxidase O2^- generation [5]: abolished
COc1ccc2c(c1)c(CC(=O)O)c(C)n2C(=O)c1ccc(Cl)cc1 [indomethacin] | – | – | – | – | – | – | – | – | – | IC50 [6, 8]: 1 nM
